Reference: US8394969B2, “Cyclic benzimidazole derivatives useful as anti-diabetic agents” (Merck Sharp & Dohme Corp., priority 2008, dated 2013)
Where a name gives a salt, the structure may show the parent alone.

Biological target: recombinant human AMPK complex 1 (containing α1β1γ1) (Homo sapiens, UniProt Q13131+Q9Y478)
Experiment: […] (in vitro AMPK activation assay)
Format: biochemical
Settings: not given

recombinant human AMPK complex 1 (containing α1β1γ1), sequence (Q13131 whole entry): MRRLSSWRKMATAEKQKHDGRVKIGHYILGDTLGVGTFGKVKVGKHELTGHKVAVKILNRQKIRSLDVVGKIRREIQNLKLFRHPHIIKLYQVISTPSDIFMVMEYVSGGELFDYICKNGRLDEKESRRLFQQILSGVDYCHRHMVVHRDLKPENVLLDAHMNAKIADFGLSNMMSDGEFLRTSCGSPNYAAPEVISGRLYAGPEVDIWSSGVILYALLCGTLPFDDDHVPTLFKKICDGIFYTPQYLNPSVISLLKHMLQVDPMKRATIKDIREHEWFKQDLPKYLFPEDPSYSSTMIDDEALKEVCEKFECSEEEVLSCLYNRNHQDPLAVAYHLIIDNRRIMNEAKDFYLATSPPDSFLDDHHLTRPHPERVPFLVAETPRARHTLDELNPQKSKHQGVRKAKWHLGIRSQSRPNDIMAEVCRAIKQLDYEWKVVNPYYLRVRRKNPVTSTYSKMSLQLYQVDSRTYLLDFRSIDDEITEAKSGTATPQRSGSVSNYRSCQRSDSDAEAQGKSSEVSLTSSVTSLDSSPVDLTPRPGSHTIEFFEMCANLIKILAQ
recombinant human AMPK complex 1 (containing α1β1γ1), sequence (Q9Y478 whole entry): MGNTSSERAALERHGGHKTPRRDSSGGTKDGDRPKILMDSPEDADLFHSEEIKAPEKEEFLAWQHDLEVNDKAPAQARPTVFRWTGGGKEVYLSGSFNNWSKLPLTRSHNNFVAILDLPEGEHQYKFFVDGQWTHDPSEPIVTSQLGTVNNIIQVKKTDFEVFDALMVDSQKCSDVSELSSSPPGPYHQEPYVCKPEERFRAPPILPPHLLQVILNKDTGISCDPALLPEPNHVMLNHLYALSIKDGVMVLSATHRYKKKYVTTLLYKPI
recombinant human AMPK complex 1 (containing α1β1γ1), sequence (P54619 whole entry partner): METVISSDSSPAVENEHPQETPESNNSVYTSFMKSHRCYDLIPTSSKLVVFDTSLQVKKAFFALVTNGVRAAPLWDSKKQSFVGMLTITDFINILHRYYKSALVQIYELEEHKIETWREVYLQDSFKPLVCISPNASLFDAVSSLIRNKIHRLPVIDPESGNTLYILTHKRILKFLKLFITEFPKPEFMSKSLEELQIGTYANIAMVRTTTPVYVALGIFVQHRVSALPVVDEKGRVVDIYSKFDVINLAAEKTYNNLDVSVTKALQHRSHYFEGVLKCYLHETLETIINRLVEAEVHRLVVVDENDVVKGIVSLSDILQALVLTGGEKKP

SMILES	% Maximum AMP Activation of human AMPK Complex 1
CCCc1ccc(-c2cc3nc(Oc4ccc(C)c(C(=O)O)c4)[nH]c3cc2Cl)cc1.N [Example 348, Ammonium 5-{[6-chloro-5-(4-propylphenyl)-1H-benzimidazol-2-yl]oxy}-2-methylbenzoate]	greater than 80%

Same assay, conditions: read-out: % Maximum AMP Activation of human AMPK Complex 1, recombinant human AMPK complex 1 (α1β1γ1); basal activity subtracted

SMILES	Emax
O=C(O)Cn1nnnc1Sc1nc2cc(-c3ccc(-c4ccccc4)cc3)c(Cl)cc2[nH]1 [Example 55, [5-(5-biphenyl-4-yl-6-chloro-1H-benzo-imidazol-2-ylsulfanyl)-tetrazol-1-yl]-acid, ammonium salt]	> 80%

Same assay, conditions: recombinant human AMPK complex 1 (α1β1γ1); basal activity subtracted; read-out: % Maximum AMP Activation of human AMPK Complex 1

SMILES	Emax
Cc1ccc(Oc2nc3cc(C#Cc4ccc(OC(F)(F)F)cc4)c(Cl)cc3[nH]2)cc1C(=O)O [Example 95, 5-[6-Chloro-5-(4-trifluoromethoxy-phenylethynyl)-1H-benzoimidazol-2-yloxy]-2-methyl-benzoic acid]	> 80%
Cc1cc(Oc2nc3cc(-c4ccc(C(C)(C)O)cc4)c(Cl)cc3[nH]2)cc(C(=O)O)c1C [Example 316, 5-{6-Chloro-5-[4-(1-hydroxy-1-methyl-ethyl)-phenyl]-1H-benzoimidazol-2-yloxy}-2,3-dimethyl-benzoic acid]	> 80%
Cc1ccc(C(=O)O)cc1Oc1nc2cc(-c3ccc4c(ccn4C)c3)c(Cl)cc2[nH]1 [Example 216, 3-[6-Chloro-5-(1-methyl-1H-indol-5-yl)-1H-benzoimidazol-2-yloxy]-4-methyl-benzoic acid]	> 80%
Cc1ccc(Oc2nc3cc(-c4ccc5c(c4)OC(F)(F)O5)c(Cl)cc3[nH]2)cc1C(=O)O [Example 308, 5-[6-Chloro-5-(2,2-difluoro-benzo[1,3]dioxol-5-yl)-1H-benzoimidazol-2-yloxy]-2-methyl-benzoic acid]	> 80%
Cc1ccc(Oc2nc3cc(-c4ccc5c(c4)CC(=O)N5C)c(Cl)cc3[nH]2)cc1C(=O)O [Example 304, 5-[6-Chloro-5-(1-methyl-2-oxo-2,3-dihydro-1H-indol-5-yl)-1H-benzoimidazol-2-yloxy]-2-methyl-benzoic acid]	> 80%
Cc1ccc(Oc2nc3cc(-c4ccc(-c5ccc(F)cc5)cc4)c(Cl)cc3[nH]2)cc1C(=O)O [Example 105, 5-[6-Chloro-5-(4′-fluoro-biphenyl-4-yl)-1H-benzoimidazol-2-yloxy]-2-methyl-benzoic acid]	> 80%
O=C(O)c1cc(Oc2nc3cc(C#Cc4ccccc4)c(Cl)cc3[nH]2)cc(C(=O)O)c1 [Example 48, 5-(6-Chloro-5-phenylethynyl-1H-benzoimidazol-2-yloxy)-isophthalic acid]	> 80%
Cc1ccc(Oc2nc3cc(C#Cc4cccc(C(=O)O)c4)c(Cl)cc3[nH]2)cc1C(=O)O [Example 126, 5-[5-(3-Carboxy-phenylethynyl)-6-chloro-1H-benzoimidazol-2-yloxy]-2-methyl-benzoic acid]	> 80%
Cc1ccc(Oc2nc3cc(-c4ccc(-c5ccccc5C)cc4)c(Cl)cc3[nH]2)cc1C(=O)O [Example 193, 5-{[6-chloro-5-(2′-methylbiphenyl-4-yl)-1H-benzimidazol-2-yl]oxy}-2-methylbenzoic acid]	> 80%
Cc1ccc(Oc2nc3cc(-c4ccc([S+](C)[O-])cc4)c(Cl)cc3[nH]2)cc1C(=O)O (centres unmarked) [Example 331, 2-(3-carboxy-4-methylphenoxy)-6-chloro-5-[4-(methylsulfinyl)phenyl]-1H-3,1-benzimidazol-3-ium formate]	> 80%
O=C(O)c1cncc(Oc2nc3cc(-c4ccc(-c5ccccc5)cc4)c(Cl)cc3[nH]2)c1 [Example 34, 5-(5-Biphenyl-4-yl-6-chloro-1H-benzoimidazol-2-yloxy)-nicotinic acid]	> 80%
COC(=O)c1cc(Oc2nc3cc(-c4ccc(-c5ccc(=O)n(C(F)F)c5)cc4)c(Cl)cc3[nH]2)ccc1C [Example 163, 5-{6-Chloro-5-[4-(1-difluoromethyl-6-oxo-1,6-dihydro-pyridin-3-yl)-phenyl]-1H-benzoimidazol-2-yloxy}-2-methyl-benzoic acid methyl ester]	> 80%
Cc1cc(Oc2nc3cc(-c4ccc5c(ccn5C)c4)c(Cl)cc3[nH]2)cc(C(=O)O)c1C [Example 311, 5-[6-Chloro-5-(1-methyl-1H-indol-5-yl)-1H-benzoimidazol-2-yloxy]-2,3-dimethyl-benzoic acid]	> 80%
COc1cc(-c2cc3nc(Oc4ccc(C)c(C(=O)O)c4)[nH]c3cc2Cl)ccc1O [Example 255, 2-(3-carboxy-4-methylphenoxy)-6-chloro-5-(4-hydroxy-3-methoxyphenyl)-1H-3,1-benzimidazol-3-ium trifluoroacetate]	> 80%
OCc1cccc(Oc2nc3cc(-c4ccc(-c5ccccc5)cc4)c(Cl)cc3[nH]2)c1 [Example 37, [3-(5-Biphenyl-4-yl-6-chloro-1H-benzoimidazol-2-yloxy)-phenyl]-methanol]	> 80%
COC(=O)c1cc(Oc2nc3cc(C#Cc4ccc(OC)cc4)c(Cl)cc3[nH]2)ccc1C [Example 122, 5-[6-Chloro-5-(4-methoxy-phenylethynyl)-1H-benzoimidazol-2-yloxy]-2-methyl-benzoic acid methyl ester]	> 80%
CN1CCOc2cc(-c3cc4nc(Oc5ccc(CC(=O)O)cc5)[nH]c4cc3Cl)ccc21 [Example 244, {4-[6-Chloro-5-(4-methyl-3,4-dihydro-2H-benzo[1,4]oxazin-7-yl)-1H-benzoimidazol-2-yloxy]-phenyl}-acetic acid]	> 80%
Cc1ccc(Oc2nc3cc(-c4ccc(C(C)O)cc4)c(Cl)cc3[nH]2)cc1C(=O)O (centres unmarked) [Example 156, 5-{6-Chloro-5-[4-(1-hydroxy-ethyl)-phenyl]-1H-benzoimidazol-2-yloxy}-2-methyl-benzoic acid]	> 80%
Cn1ccc2cc(-c3cc4nc(Oc5ccc(Cl)c(C(=O)O)c5)[nH]c4cc3Cl)ccc21 [Example 217, 2-Chloro-5-[6-chloro-5-(1-methyl-1H-indol-5-yl)-1H-benzoimidazol-2-yloxy]-benzoic acid]	> 80%
Cc1ccc(Oc2nc3cc(-c4ccc(-c5ccn[nH]5)cc4)c(F)cc3[nH]2)cc1C(=O)O [Example 246, 5-{6-Fluoro-5-[4-(2H-pyrazol-3-yl)-phenyl]-1H-benzoimidazol-2-yloxy}-2-methyl-benzoic acid]	> 80%
Cc1ccc(Oc2nc3cc(-c4ccc(N(C)C)cc4)c(Cl)cc3[nH]2)cc1C(=O)O [Example 318, 2-(3-carboxy-4-methylphenoxy)-6-chloro-5-[4-(dimethylamino)phen-yl]-1H-benzimidazol-3-ium chloride]	> 80%
O=C(O)c1cccc(Oc2nc3cc(-c4ccc(-c5ccccc5)cc4)c(Cl)cc3[nH]2)n1 [Example 214, 6-(5-Biphenyl-4-yl-6-chloro-1H-benzoimidazol-2-yloxy)-pyridine-2-carboxylic acid]	> 80%
Cc1ccc(Oc2nc3cc(C#Cc4ccc(-c5nn[nH]n5)cc4)c(Cl)cc3[nH]2)cc1C(=O)O [Example 79, 5-{6-Chloro-5-[4-(2H-tetrazol-5-yl)-phenylethynyl]-1H-benzimidazol-2-yloxy}-2-methyl-benzoic acid]	> 80%
Cc1ccc(Oc2nc3cc(-c4ccc5c(c4)cc(C(=O)O)n5C)c(Cl)cc3[nH]2)cc1C(=O)O [Example 275, 5-[2-(3-Carboxy-4-methyl-phenoxy)-6-chloro-1H-benzoimidazol-5-yl]-1-methyl-1H-indole-2-carboxylic acid]	> 80%
Cc1ccc(Oc2nc3cc(-c4cnc5c(c4)OCCN5C)c(Cl)cc3[nH]2)cc1C(=O)O [Example 143, 2-(3-carboxy-4-methylphenoxy)-6-chloro-5-(4-methyl-3,4-dihydro-2H-pyrido[3,2-b] [1,4]oxazin-7-yl)-1H-3,1-benzimidazol-3-ium trifluoroacetate]	> 80%
O=C(O)C(O)c1ccc(Oc2nc3cc(-c4ccc(-c5ccccc5)cc4)c(Cl)cc3[nH]2)cc1 (centres unmarked) [Example 20, [4-(5-Biphenyl-4-yl-6-chloro-1H-benzoimidazol-2-yloxy)-phenyl]-hydroxy-acetic acid]	> 80%
Cc1ccc(Oc2nc3cc(-c4cc5ccccc5o4)c(Cl)cc3[nH]2)cc1C(=O)O [Example 356, 5-(5-Benzofuran-2-yl-6-chloro-1H-benzoimidazol-2-yloxy)-2-methyl-benzoic acid]	> 80%
Cc1ccc(Oc2nc3cc(-c4ccc(C(=O)O)c5c4ccn5C)c(Cl)cc3[nH]2)cc1C(=O)O [Example 271, 4-[2-(3-Carboxy-4-meihyl-phenoxy)-6-chloro-1H-benzoimidazol-5-yl]-1-methyl-1H-indole-7-carboxylic acid]	> 80%
COC(=O)c1cc(Oc2nc3cc(-c4ccc(-c5ccccc5OC)cc4)c(Cl)cc3[nH]2)ccc1C [Example 197, Methyl 5-{[6-chloro-5-(2′-methoxybiphenyl-4-yl)-1H-benzimidazol-2-yl]oxy}-2-methylbenzoate]	> 80%

Same assay, conditions: recombinant human AMPK complex 1 (α1β1γ1); read-out: EC50

SMILES	EC50
Cc1ccc(Oc2nc3cc(-c4ccc(N5CCCC5)cc4)c(Cl)cc3[nH]2)cc1C(=O)O [Example 231, 5-{[6-chloro-5-(4-pyrrolidin-1-ylphenyl)-1H-benzimidazol-2-yl]oxy}-2-methylbenzoic acid]	7 nM
Cc1ccc(Oc2nc3cc(-c4ccc(C5(CO)CC5)cc4)c(Cl)cc3[nH]2)cc1C(=O)O [Example 262, 5-[(6-chloro-5-{4-[1-(hydroxymethyl)cyclopropyl]phenyl}-1H-benzimidazol-2-yl)oxy]-2-methylbenzoic acid]	3 nM
Cc1ccc(Oc2nc3cc(-c4ccc(C(=O)N5CCC(O)CC5)cc4)c(Cl)cc3[nH]2)cc1C(=O)O [Example 236, 5-{6-Chloro-5-[4-(4-hydroxy-piperidine-1-carbonyl)-phenyl]-1H-benzoimidazol-2-yloxy}-2-methyl-benzoic acid]	10 nM
Cc1ccc(Oc2nc3cc(-c4ccc(-c5ccccc5)cc4)c(F)cc3[nH]2)cc1C(=O)O [Example 365, 5-[(5-biphenyl-4-yl-6-fluoro-1H-benzimidazol-2-yl)oxy]-2-methylbenzoic acid]	9 nM
